Data on 5 molecules can be found in publication PMC8326056 (Journal of Animal Science, 2021).

Assay [1] deals with bovine s.c. adipose tissue. Nature of the assay: cAMP in s.c. adipose tissue explants (Cyclic AMP XP Assay Kit). The assay is classed as cell-based, bovine (Angus cross steers). The note with it: for Effect on cAMP (in words): ligand alone; for Effect on cAMP (in words) / cAMP: 30 min; for cAMP: n = 6 steers, baseline 0.42 ± 0.06. On the procedure: (§1) Fresh s.c. adipose tissue was cut into small pieces (50 to 100 mg, actual weight recorded) and i.m. adipose tissue was dissected from the LM as described previously ([Smith and Crouse, 1984]; [Miller et al., 1988]) and weighed. The s.c. and i.m. adipose samples were incubated according to 3 different sets of experimental conditions. Experiment 1: Small pieces of s.c. and i.m. adipose tissues (50 to 100 mg; 1 to 2 mm thick; [Smith and Prior, 1981]) were preincubated in 6-well tissue culture plates in a CO2/O2 incubator (NuAire model 4750 CO2 incubator, Plymouth, MN) for 30 min at 37 °C, 5% CO2 in KHB plus 5 mM glucose, 10 mM HEPES, and 0.5 mM theophylline. […] Experiment 2: The s.c. and i.m. adipose samples were preincubated in KHB plus 5 mM glucose, 10 mM HEPES, and 0.5 mM theophylline in the presence or absence of either 10 µM L-748,337 (β 3-AR antagonist) or 50 µM PRO (β-AR pan-antagonist). […] After the 30 min preincubation, either DOB (β 1-AA) or SAL (β 2-AA) was added to the culture plate wells in a concentration-dependent manner (10^–9 to 10^–4 M) for an additional 30 min. For all experiments, there were at least 3 replicate wells per treatment condition. After a total of 1-hr incubation, the adipose samples were homogenized in 1 mL cell lysis buffer (Cell Signaling Technology, Danvers, MA) with 1 mM phenymethylsulfony fluoride, and centrifuged at 14,000 × g for 30 min to remove tissue debris. The supernatant fractions were stored at −80 °C until subsequent analyses were performed.
(§2) The concentration of cAMP was determined based on the principle of competitive binding using the Cyclic AMP XP Assay Kit according to the manufacturer’s instructions. Cytosolic extracts from the adipose explants were co-incubated at room temperature for 3 hr in 96-well plates with the HRP-linked cAMP substrate coated onto an immobilized rabbit monoclonal cAMP antibody using a horizontal orbital plate shaker. After the reaction, color development was measured at 450 nm using an Epoch microplate reader (Biotek Instruments, Winooski, VT). All samples were analyzed in duplicate. A standard curve and cAMP concentrations were calculated using GrapPad Prism 6.04 software (GraphPad Software Inc., San Diego, CA).

The subject of assay [2] is bovine i.m. adipose tissue. Nature of the assay: cAMP in i.m. adipose tissue explants (Cyclic AMP XP Assay Kit). Format: cell-based, bovine (Angus cross steers). The note with it: for Effect on cAMP (in words): ligand alone; for Effect on cAMP (in words) / cAMP: 30 min; for cAMP: i.m., mean ± SEM, n = 6 steers, baseline 0.64 ± 0.19. The procedure:
as §1, §2

Assay [3] has as its system bovine s.c. adipose tissue. The assay can be described thus: Lipolysis: glycerol release, s.c. adipose tissue explants. The assay is classed as cell-based, bovine (Angus cross steers). Particulars: for Glycerol: s.c., mean ± SEM, baseline 50.0 ± 12.8.
The subject of assay [4] is bovine i.m. adipose tissue. The assay can be described thus: Lipolysis: glycerol release, i.m. adipose tissue explants. The assay is classed as cell-based, bovine (Angus cross steers). Particulars: 30 min; for Effect on glycerol release (in words): i.m. adipose tissue; for Glycerol: i.m., mean ± SEM, baseline 48.6 ± 10.3.
Assay [5] concerns bovine s.c. adipose tissue. Nature of the assay: Lipolysis: NEFA release, s.c. adipose tissue explants. The assay is classed as cell-based, bovine (Angus cross steers). Particulars: for Effect on NEFA release (in words) / NEFA: 30 min; for NEFA: s.c., mean ± SEM, baseline 0.99 ± 0.40.
Assay [6] relates to bovine i.m. adipose tissue. The assay can be described thus: Lipolysis: NEFA release, i.m. adipose tissue explants. The assay is classed as cell-based, bovine (Angus cross steers). Particulars: 30 min; for Effect on NEFA release (in words): i.m. adipose tissue; for NEFA: i.m., mean ± SEM, baseline 0.65 ± 0.20.
Another assay deals with T1, bovine β 1-AR (Bos taurus, UniProt Q9TT96).
T1 construct: expressed in transfected cells; host or cells: Chinese hamster ovary (CHO) cells, pcDNA3.1+ vector
T1 sequence (Q9TT96 whole entry): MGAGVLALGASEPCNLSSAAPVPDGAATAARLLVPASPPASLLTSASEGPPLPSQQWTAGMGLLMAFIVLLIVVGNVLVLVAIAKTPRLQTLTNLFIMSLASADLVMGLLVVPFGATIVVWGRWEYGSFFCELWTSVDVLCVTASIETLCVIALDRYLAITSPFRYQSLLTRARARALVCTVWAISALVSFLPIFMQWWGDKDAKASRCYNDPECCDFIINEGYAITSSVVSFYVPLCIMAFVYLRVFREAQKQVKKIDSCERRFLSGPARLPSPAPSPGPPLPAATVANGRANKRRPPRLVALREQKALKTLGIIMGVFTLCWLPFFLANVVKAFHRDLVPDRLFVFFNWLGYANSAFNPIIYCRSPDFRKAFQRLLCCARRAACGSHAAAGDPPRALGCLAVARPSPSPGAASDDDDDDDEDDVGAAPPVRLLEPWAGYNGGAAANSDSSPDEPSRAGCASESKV
Nature of the assay: cAMP induction in CHO cells transfected with bovine β 1-AR construct (LANCE cAMP kit). Format: cell-based. Particulars: 45 min, 5 mM theophylline, ND = cAMP not detected or insufficient for EC50. On the procedure:
(§3) Chinese Hamster Overy cells were transfected with either the bovine β 1-, β 2-, or β 3-AR constructs in pcDNA3.1+. Expression of the β-AR was confirmed by polymerase chain reaction (PCR). Thereafter, cells were grown in DMEM/Ham’s F12 media with 10% FBS and 1% penicillin/streptomycin at 37 °C under 5% CO2. Opti-plates (Perkin Elmer, Waltham, MA) were used for all experiments. For each experiment, cells were plated into 96-well tissue culture plates at 60,000 cells per well in a volume of 100 µL media. Cells were grown for 48 hr after plating prior to ligand addition and determination of cAMP.
(§4) All samples and standards were tested in duplicate for each repetition, and 4 repetitions per cell line were performed for each potential ligand tested. Controls included no treatment (media alone), 5 mM theophylline alone (an inhibitor of phosphodiesterase), 0.1 % DMSO alone, and water alone. None of the controls differed from media alone and are thus not reported. A volume of media equal to the volume of test material to be added was removed from the well just prior to stimulation. Theophylline was added in a volume of 25 µL to obtain a final concentration of 5 mM and each test molecule was delivered in 10 µL. Cells were returned to 37 °C and allowed to incubate for 45 min before media was removed and the cells lysed in 38 µL lysis buffer A. The LANCE cAMP detection kit (AD0262E) was purchased from Perkin Elmer. The LANCE assay instructions were followed for a 40 µL reaction volume with 15 µL of cell lysate. The reaction was incubated for 20 hr prior to measuring fluorescence. A standard curve was generated with increasing concentrations of cAMP, and the linear portion of the curve was used to calculate sample cAMP concentrations.
For orientation: TR-FRET usually uses a lanthanide donor and a delayed reading to cut background.

For a further assay, the target named is T2, bovine β 3-AR (Bos taurus, UniProt P46626).
T2 construct: expressed in transfected cells; host or cells: Chinese hamster ovary (CHO) cells, pcDNA3.1+ vector
T2 sequence (P46626 whole entry): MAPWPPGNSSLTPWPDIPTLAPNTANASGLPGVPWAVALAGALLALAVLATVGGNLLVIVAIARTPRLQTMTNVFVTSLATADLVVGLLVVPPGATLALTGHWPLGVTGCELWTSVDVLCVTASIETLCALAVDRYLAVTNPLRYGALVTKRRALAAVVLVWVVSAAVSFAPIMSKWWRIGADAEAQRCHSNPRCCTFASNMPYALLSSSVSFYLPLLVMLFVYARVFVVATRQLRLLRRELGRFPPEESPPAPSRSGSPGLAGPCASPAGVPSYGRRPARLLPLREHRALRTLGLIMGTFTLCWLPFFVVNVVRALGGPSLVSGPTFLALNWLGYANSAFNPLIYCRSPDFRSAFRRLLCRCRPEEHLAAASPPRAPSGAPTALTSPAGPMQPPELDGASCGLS
The assay can be described thus: cAMP induction in CHO cells transfected with bovine β 3-AR construct (LANCE cAMP kit). Format: cell-based. Particulars: 45 min, 5 mM theophylline. The procedure: as §3, §4

The mark [7] stands for this setting: Bos taurus, sc, 0.5 h, s.c. adipose tissue, 30 min at 37 °C, n = 5.

Counter-ions that a name gives are not always drawn.

What is called EC50 is the concentration giving half of the maximal effect.

As for `CC(C)NCC(O)c1ccc(O)c(O)c1` (centres unmarked) [ISO, isoproterenol hydrochloride], the EC50 in assay [1] (Bos taurus, sc, 0.5 h, s.c. adipose tissue, 30 min at 37 °C, n = 5, read-out: EC50, cAMP accumulation) came out at 220 nM; in assay [3] (setting [7]) it was 5100 nM; in assay [5] (setting [7]) it was 180 nM. Further, the “Concentration at which the cAMP response plateaus” value in assay [1] (s.c. adipose tissue) is recorded as 10^–6 M. In addition, the “Effect on cAMP (in words)” value in assay [1] (s.c. adipose tissue) was “increased cAMP accumulation”; in assay [2] (i.m. adipose tissue), “not dose-dependent”. The “Effect on glycerol release (in words)” value is on record as “increased glycerol release in a concentration-dependent manner” in assay [3] (s.c. adipose tissue, 30 min) and “had no effect” in assay [4]. For the same molecule, the “Effect on NEFA release (in words)” value in assay [5] (s.c. adipose tissue) is listed as “increased NEFA release in a dose-dependent manner”; in assay [6], “failed to elicit a similar response curve”.

As for `CC(CCc1ccc(O)cc1)NCC(O)c1ccc(O)cc1.Cl` (racemic) [RAC, ractopamine hydrochloride], the values for the EC50 on bovine β 1-AR and at bovine β 3-AR were 2 nM and 24 nM, respectively. Further, the “Effect on cAMP (in words)” value in assay [1] (s.c. adipose tissue) and in assay [2] (i.m. adipose tissue) was “Neither RAC nor ZIL (10^–8 to 10^–6 M) affected cAMP concentrations” in each case. Further, the cAMP is recorded as 0.44 ± 0.14 pmol/100 mg tissue in assay [1] (s.c., 10^–6 M ligand, mean ± SEM); 0.38 ± 0.08 pmol/100 mg tissue in assay [1] (s.c., 10^–7 M ligand, mean ± SEM); 0.39 ± 0.09 pmol/100 mg tissue in assay [1] (s.c., 10^–8 M ligand, mean ± SEM); 0.70 ± 0.18 pmol/100 mg tissue in assay [2] (10^–6 M ligand); 0.76 ± 0.18 pmol/100 mg tissue in assay [2] (10^–7 M ligand); 0.86 ± 0.22 pmol/100 mg tissue in assay [2] (10^–8 M ligand). The Glycerol in assay [3] (10^–6 M ligand, 30 min) is on record as 63.3 ± 9.20 nmol/100 mg tissue; in assay [3] (10^–7 M ligand, 30 min), 52.6 ± 11.1 nmol/100 mg tissue; in assay [3] (10^–8 M ligand, 30 min) it was 50.3 ± 7.60 nmol/100 mg tissue; in assay [4] (10^–6 M ligand), 42.6 ± 11.4 nmol/100 mg tissue; in assay [4] (10^–7 M ligand) it was 81.7 ± 25.5 nmol/100 mg tissue; in assay [4] (10^–8 M ligand) it was 52.4 ± 16.4 nmol/100 mg tissue. For the same molecule, the “Effect on glycerol release (in words)” value in assay [4] is recorded as “Neither RAC nor ZIL affected cAMP production or glycerol or NEFA release”. The “Effect on NEFA release (in words)” value in assay [5] (s.c. adipose tissue) and in assay [6] was “Neither RAC nor ZIL affected cAMP production or glycerol or NEFA release” in each case. For the same molecule, the NEFA in assay [5] (10^–6 M ligand) was found to be 1.06 ± 0.13 µmol/100 mg tissue; in assay [5] (10^–7 M ligand), 1.20 ± 0.21 µmol/100 mg tissue; in assay [5] (10^–8 M ligand) it was 1.10 ± 0.15 µmol/100 mg tissue; in assay [6] (10^–6 M ligand) it was 0.56 ± 0.13 µmol/100 mg tissue; in assay [6] (10^–7 M ligand), 1.18 ± 0.50 µmol/100 mg tissue; in assay [6] (10^–8 M ligand), 0.75 ± 0.21 µmol/100 mg tissue.

For the molecule `C[C@H](Cc1ccc(OCC(=O)O)cc1)NC[C@H](O)c1cccc(Cl)c1` [BRL-37344], the “Effect on cAMP (in words)” value in assay [1] (s.c. adipose tissue) is reported as “Neither BRL-37344 nor LUB influenced cAMP or NEFA concentrations”. Also, in assay [1] (s.c., cAMP readout, mean ± SEM, n = 12 cattle, combinations: preincubation with 1 µM LUB ± 10 µM L-748,337), the “Adipose tissue lipolytic sensitivity (−logEC50) to β-AR ligands, s.c.” value came out at 7.00 ± 3.27. The “cAMP concentration compared with explants treated with the same concentrations of LUB” value in assay [2] (i.m. adipose tissue, 10^–6 and 10^–5 M, P < 0.05) was “significantly less”. The “Effect on NEFA release (in words)” value is given as “Neither BRL-37344 nor LUB influenced cAMP or NEFA concentrations” in assay [5] (s.c. adipose tissue) and “not influenced” in assay [6].

Turning to `CC(C)(C)NCC(O)c1ccc(O)c(CO)c1` (centres unmarked) [SAL, salbutamol sulfate], the results for the “Effect on cAMP (in words)” value in assay [1] (s.c. adipose tissue) and in assay [2] (i.m. adipose tissue) were “increased cAMP production in s.c. adipose tissue in a dose-dependent manner” and “without effect in i.m. adipose tissue”, respectively.

Consider `CC(CCc1ccc(O)cc1)NCCc1ccc(O)c(O)c1` (centres unmarked) [DOB, dobutamine hydrochloride], for which the “Effect on cAMP (in words)” value in assay [1] (s.c. adipose tissue) is given as “increased cAMP production in s.c. adipose tissue in a dose-dependent manner”; in assay [2] (i.m. adipose tissue) it was “without effect in i.m. adipose tissue”.
